The assay deals with recombinant human SAE enzyme (Homo sapiens (Human), UniProt Q9UBT2). Briefly: SAE HTRF enzyme assay. It counts as biochemical. Particulars: for inhibition at 0.111 µM: read-out: Percent Inhibition. The gist of the method: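 0.11 nM SAE incubated with 0.5 μM ATP, 0.01 μM Ubc9-GST and 0.125 μM Sumo-Flag in HEPES pH 7.5, MgCl2, GSH, BSA, ±inhibitor, 105 min at 24° C. EDTA stop; Eu-cryptate anti-Flag/XL-APC anti-GST HTRF read after 2 h. Values given as single-concentration % inhibition or IC50.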
(In TR-FRET formats the signal depends on donor and acceptor labels being close together.)

[1] abbreviates: SAE inhibition at compound concentration 0.111 μM.
Where [2] appears, read: SAE inhibition, class symbols, legend in nM.

Chain of recombinant human SAE enzyme (Q9UBT2 whole entry): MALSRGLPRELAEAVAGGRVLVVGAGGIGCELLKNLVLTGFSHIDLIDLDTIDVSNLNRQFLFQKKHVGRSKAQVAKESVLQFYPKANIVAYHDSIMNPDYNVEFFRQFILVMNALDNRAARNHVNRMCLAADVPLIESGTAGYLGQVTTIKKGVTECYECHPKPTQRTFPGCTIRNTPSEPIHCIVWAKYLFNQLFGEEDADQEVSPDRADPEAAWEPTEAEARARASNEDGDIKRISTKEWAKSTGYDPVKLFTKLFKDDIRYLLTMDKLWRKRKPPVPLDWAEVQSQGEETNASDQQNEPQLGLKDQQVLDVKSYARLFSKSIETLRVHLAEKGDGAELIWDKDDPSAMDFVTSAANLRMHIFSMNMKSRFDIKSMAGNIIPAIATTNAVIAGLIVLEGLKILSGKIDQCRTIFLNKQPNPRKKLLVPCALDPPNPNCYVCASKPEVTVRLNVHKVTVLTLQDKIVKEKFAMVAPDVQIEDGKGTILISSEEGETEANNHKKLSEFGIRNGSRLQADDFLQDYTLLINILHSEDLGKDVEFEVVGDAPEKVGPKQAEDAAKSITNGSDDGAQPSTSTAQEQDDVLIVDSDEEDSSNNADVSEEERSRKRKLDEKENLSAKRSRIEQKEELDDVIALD
Chain of recombinant human SAE enzyme (Q9UBE0 whole entry partner): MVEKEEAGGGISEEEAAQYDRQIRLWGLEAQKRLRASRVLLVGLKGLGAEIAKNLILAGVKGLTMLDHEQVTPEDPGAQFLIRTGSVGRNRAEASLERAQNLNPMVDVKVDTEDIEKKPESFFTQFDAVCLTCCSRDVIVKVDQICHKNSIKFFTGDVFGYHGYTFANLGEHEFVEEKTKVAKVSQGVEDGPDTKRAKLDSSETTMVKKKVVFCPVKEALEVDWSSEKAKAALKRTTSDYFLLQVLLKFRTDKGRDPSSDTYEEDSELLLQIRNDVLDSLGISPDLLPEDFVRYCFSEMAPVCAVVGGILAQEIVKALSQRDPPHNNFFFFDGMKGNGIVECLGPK

Take `Cc1sc(C(=O)c2cncnc2N[C@@H]2C[C@H](COS(N)(=O)=O)[C@@H](O)C2)nc1[C@H](O)c1cccc(Cl)c1` (single isomer, unassigned) [I-355a, [(1R,2S,4R)-4-{[5-({4-[(R)-(3-chlorophenyl)(hydroxy)methyl]-5-methyl-1,3-thiazol-2-yl}carbonyl)pyrimidin-4-yl]amino}-2-hydroxycyclopentyl]methyl sulfamate or [(1R,2S,4R)-4-{[5-({4-[(S)-(3-chlorophenyl)(hydroxy)methyl]-5-methyl-1,3-thiazol-2-yl}carbonyl)pyrimidin-4-yl]amino}-2-hydroxycyclopentyl]methyl sulfamate]: the “Percent Inhibition” value under setting [1] stood at 98%. For the same molecule, the half-inhibitory concentration (IC50) under setting [2] is less than 10 nM.

`NC(c1cccc(Br)c1)c1cc(C(=O)c2cncnc2NC2CC(O)C(COS(N)(=O)=O)C2)sc1Cl` (mixture of isomers) [I-22, [(1R,2S,4R)-4-{[5-({4-[(R)-amino(3-bromophenyl)methyl]-5-chloro-2-thienyl}carbonyl)pyrimidin-4-yl]amino}-2-hydroxycyclopentyl]methyl sulfamate and [(1R,2S,4R)-4-{[5-({4-[(S)-amino(3-bromophenyl)methyl]-5-chloro-2-thienyl}carbonyl)pyrimidin-4-yl]amino}-2-hydroxycyclopentyl]methyl sulfamate]: the “Percent Inhibition” value (Concentration 0.111 μM) is reported as 99. Moreover, the IC50 (class symbols A/B/C) is less than 10 nM.

As for `Cc1sc(C(=O)c2cncnc2N[C@@H]2C[C@H](COS(N)(=O)=O)[C@@H](O)C2)cc1[C@H]1OCCc2ccccc21` [I-256a, [(1R,2S,4R)-4-{[5-({4-[(1S)-3,4-dihydro-1H-isochromen-1-yl]-5-methyl-2-thienyl}carbonyl)pyrimidin-4-yl]amino}-2-hydroxycyclopentyl]methyl sulfamate], under “Concentration 0.111 μM”, the inhibition at 0.111 µM was determined as 94%. Besides, the half-maximal inhibitory concentration (IC50) (class symbols A/B/C) was less than 10 nM.

In the case of `NS(=O)(=O)OC[C@H]1C[C@@H](Nc2ncncc2C(=O)c2cc([C@@H]3CCc4ccc(Cl)cc43)cs2)C[C@@H]1O` (single isomer, unassigned) [I-349a, [(1R,2S,4R)-4-{[5-({4-[(1R)-6-chloro-2,3-dihydro-1H-inden-1-yl]-2-thienyl}carbonyl)pyrimidin-4-yl]amino}-2-hydroxycyclopentyl]methyl sulfamate or [(1R,2S,4R)-4-{[5-({4-[(1S)-6-chloro-2,3-dihydro-1H-inden-1-yl]-2-thienyl}carbonyl)pyrimidin-4-yl]amino}-2-hydroxycyclopentyl]methyl sulfamate], under setting [1], the “Percent Inhibition” value was found to be 42%. Moreover, under setting [2], the IC50 was 100 to 1000 nM.

Consider `NS(=O)(=O)OC[C@H]1C[C@@H](Nc2ncncc2C(=O)c2cc(COc3ccccc3OC(F)(F)F)cs2)C[C@@H]1O` [I-176, [(1R,2S,4R)-2-hydroxy-4-({5-[(4-{[2-(trifluoromethoxy)phenoxy]methyl}-2-thienyl)carbonyl]pyrimidin-4-yl}amino)cyclopentyl]methyl sulfamate], for which the inhibition at 0.111 µM (Concentration 0.111 μM) was 87%. For the setting “class symbols A/B/C”, the 50% inhibitory concentration (IC50) is 10 to 100 nM.

`NS(=O)(=O)OC[C@H]1C[C@@H](Nc2ncncc2C(=O)c2cc(COc3ccccc3Cl)cs2)C[C@@H]1O` [I-129, [(1R,2S,4R)-4-{[5-({4-[(2-chlorophenoxy)methyl]-2-thienyl}carbonyl)pyrimidin-4-yl]amino}-2-hydroxycyclopentyl]methyl sulfamate]: the inhibition at 0.111 µM (Concentration 0.111 μM) came to 95%. Under “class symbols A/B/C”, the IC50 is less than 10 nM.

For the molecule `NS(=O)(=O)OC[C@H]1C[C@@H](Nc2ncncc2C(=O)c2cc([C@@H]3OCC4(CC4)c4ccccc43)cs2)C[C@@H]1O` (single isomer, unassigned) [I-281a, [(1R,2S,4R)-2-hydroxy-4-{[5-({4-[(1′R)-1′H-spiro[cyclopropane-1,4′-isochromen]-1′-yl]-2-thienyl}carbonyl)pyrimidin-4-yl]amino}cyclopentyl]methyl sulfamate or [(1R,2S,4R)-2-hydroxy-4-{[5-({4-[(1′S)-1′H-spiro[cyclopropane-1,4′-isochromen]-1′-yl]-2-thienyl}carbonyl)pyrimidin-4-yl]amino}cyclopentyl]methyl sulfamate], under setting [1], the “Percent Inhibition” value was 74%. The IC50 under setting [2] fell in the range of 10 to 100 nM.

Regarding `Cc1cccc(Cc2cc(C(=O)c3cncnc3N[C@@H]3C[C@H](COS(N)(=O)=O)[C@@H](O)[C@@H]3F)oc2C)c1` [I-65, [(1R,2R,3R,4R)-3-fluoro-2-hydroxy-4-({5-[5-methyl-4-(3-methylbenzyl)-2-furoyl]pyrimidin-4-yl}amino)cyclopentyl]methyl sulfamate], the inhibition at 0.111 µM (Concentration 0.111 μM) amounted to 99%. In addition, the IC50 (class symbols A/B/C) is less than 10 nM.

In the case of `N[C@H](c1cccc(Cl)c1)c1csc(C(=O)c2cncnc2N[C@@H]2C[C@H](COS(N)(=O)=O)[C@@H](O)C2)c1` (single isomer, unassigned) [I-36b, [(1R,2S,4R)-4-{[5-({4-[(R)-amino(3-chlorophenyl)methyl]-2-thienyl}carbonyl)pyrimidin-4-yl]amino}-2-hydroxycyclopentyl]methyl sulfamate or [(1R,2S,4R)-4-{[5-({4-[(S)-amino(3-chlorophenyl)methyl]-2-thienyl}carbonyl)pyrimidin-4-yl]amino}-2-hydroxycyclopentyl]methyl sulfamate], where the note is “Concentration 0.111 μM”, the “Percent Inhibition” value was determined as 99. In addition, under “class symbols A/B/C”, the IC50 was less than 10 nM.

Regarding `NS(=O)(=O)OC[C@H]1C[C@@H](Nc2ncncc2C(=O)c2cc([C@@H]3OCCc4cc(F)c(F)cc43)c(Cl)s2)C[C@@H]1O` (single isomer, unassigned) [I-290b, [(1R,2S,4R)-4-{[5-({5-chloro-4-[(1R)-6,7-difluoro-3,4-dihydro-1H-isochromen-1-yl]-2-thienyl}carbonyl)pyrimidin-4-yl]amino}-2-hydroxycyclopentyl]methyl sulfamate or [(1R,2S,4R)-4-{[5-({5-chloro-4-[(1S)-6,7-difluoro-3,4-dihydro-1H-isochromen-1-yl]-2-thienyl}carbonyl)pyrimidin-4-yl]amino}-2-hydroxycyclopentyl]methyl sulfamate], the “Percent Inhibition” value under setting [1] came out at 97%. For the same molecule, under setting [2], the concentration for half-maximal inhibition (IC50) is less than 10 nM.

As to `Cc1sc(C(=O)c2cncnc2N[C@@H]2C[C@H](COS(N)(=O)=O)[C@@H](O)C2)cc1C1OCCc2oc(Cl)cc21` (single isomer, unassigned) [I-298a, [(1R,2S,4R)-4-{[5-({4-[(4R)-2-chloro-6,7-dihydro-4H-furo[3,2-c]pyran-4-yl]-5-methyl-2-thienyl}carbonyl)pyrimidin-4-yl]amino}-2-hydroxycyclopentyl]methyl sulfamate or [(1R,2S,4R)-4-{[5-({4-[(4S)-2-chloro-6,7-dihydro-4H-furo[3,2-c]pyran-4-yl]-5-methyl-2-thienyl}carbonyl)pyrimidin-4-yl]amino}-2-hydroxycyclopentyl]methyl sulfamate], the “Percent Inhibition” value under setting [1] was found to be 34%. Further, the IC50 under setting [2] lay in the range of 100 to 1000 nM.

For `NS(=O)(=O)OC[C@H]1C[C@@H](Nc2ncncc2C(=O)c2cc([C@H]3OCCc4ccc(Cl)cc43)cs2)C[C@@H]1O` (mixture of isomers) [I-261, [(1R,2S,4R)-4-{[5-({4-[(1R)-7-chloro-3,4-dihydro-1H-isochromen-1-yl]-2-thienyl}carbonyl)pyrimidin-4-yl]amino}-2-hydroxycyclopentyl]methyl sulfamate and [(1R,2S,4R)-4-{[5-({4-[(1S)-7-chloro-3,4-dihydro-1H-isochromen-1-yl]-2-thienyl}carbonyl)pyrimidin-4-yl]amino}-2-hydroxycyclopentyl]methyl sulfamate], the “Percent Inhibition” value (Concentration 0.111 μM) is recorded as 99. Further, under “class symbols A/B/C”, the half-maximal inhibitory concentration (IC50) is less than 10 nM.

Take `NS(=O)(=O)OC[C@H]1C[C@@H](Nc2ncncc2C(=O)c2cc(COc3ccccc3C(F)(F)F)cs2)C[C@@H]1O` [I-188, [(1R,2S,4R)-2-hydroxy-4-({5-[(4-{[2-(trifluoromethyl)phenoxy]methyl}-2-thienyl)carbonyl]pyrimidin-4-yl}amino)cyclopentyl]methyl sulfamate]: the inhibition at 0.111 µM (Concentration 0.111 μM) stood at 79%. Moreover, the half-maximal inhibitory concentration (IC50) (class symbols A/B/C) is 10 to 100 nM.

As to `NS(=O)(=O)OC[C@H]1C[C@@H](Nc2ncncc2C(=O)c2cc(C3(c4cccc(Cl)c4)CCCO3)cs2)C[C@@H]1O` (single isomer, unassigned) [I-20b, [(1R,2S,4R)-4-{[5-({4-[(2S)-2-(3-chlorophenyl)tetrahydrofuran-2-yl]-2-thienyl}carbonyl)pyrimidin-4-yl]amino}-2-hydroxycyclopentyl]methyl sulfamate or [(1R,2S,4R)-4-{[5-({4-[(2R)-2-(3-chlorophenyl)tetrahydrofuran-2-yl]-2-thienyl}carbonyl)pyrimidin-4-yl]amino}-2-hydroxycyclopentyl]methyl sulfamate], under “Concentration 0.111 μM”, the “Percent Inhibition” value came out at 99. For the same molecule, the half-inhibitory concentration (IC50) (class symbols A/B/C) is less than 10 nM.

On to `C[C@@]1(c2csc(C(=O)c3cncnc3N[C@@H]3C[C@H](COS(N)(=O)=O)[C@@H](O)C3)c2)NCCc2ccccc21.C[C@]1(c2csc(C(=O)c3cncnc3N[C@@H]3C[C@H](COS(N)(=O)=O)[C@@H](O)C3)c2)NCCc2ccccc21` (mixture of isomers) [I-318, [(1R,2S,4R)-2-hydroxy-4-{[5-({4-[(1R)-1-methyl-1,2,3,4-tetrahydroisoquinolin-1-yl]-2-thienyl}carbonyl)pyrimidin-4-yl]amino}cyclopentyl]methyl sulfamate and [(1R,2S,4R)-2-hydroxy-4-{[5-({4-[(1S)-1-methyl-1,2,3,4-tetrahydroisoquinolin-1-yl]-2-thienyl}carbonyl)pyrimidin-4-yl]amino}cyclopentyl]methyl sulfamate], for which the “Percent Inhibition” value under setting [1] came out at 95%. Moreover, the 50% inhibitory concentration (IC50) under setting [2] is less than 10 nM.

For the molecule `Cc1cccc(Cc2coc(C(=O)c3cncnc3N[C@@H]3C[C@H](COS(N)(=O)=O)[C@@H](O)C3)c2)c1` [I-57, [(1R,2S,4R)-2-hydroxy-4-({5-[4-(3-methylbenzyl)-2-furoyl]pyrimidin-4-yl}amino)cyclopentyl]methyl sulfamate], the inhibition at 0.111 µM (Concentration 0.111 μM) stood at 98%.

As usually defined, the IC50 is the concentration that gives 50% inhibition. The inhibition is the percentage by which the read-out fell short of the control.

The values are drawn from patent US10780090B2, “Heteroaryl compounds useful as inhibitors of SUMO activating enzyme” (Millennium Pharmaceuticals, Inc., priority 2014, dated 2020).
